In patent US20230046728A1, “TECHNOLOGIES USEFUL FOR ASSESSING PERMEABILITY” (FOG PHARMACEUTICALS, INC., priority 2019, published 2023):

Tested on: Expi293 cells transfected with His-Halotag
Test: Library cell penetration assay, cell crash method (Example 6)
Type: in vitro ADME, human
Procedure: Animal cells (e.g., Expi293 cells or human HEK 293 cells) were seeded in tissue culture plates and cultured in Opti-MEM media. The cells were set in PETG flasks at a concentration of 6×10^5 cells/mL and a volume of 30 mL. The cell viability was checked to be above 90-93%. The flasks were placed in a shaking incubator at 300 rpm in 8% CO2.
After 24 hours of incubation, for each flask, one 1.5-mL Lo-bind tube and one 2-mL Lo-Bind tube were prepared. In the 1.5-mL tube, 30 μg of polyhistidine-tagged halotag (His-Halotag) plasmid and Opti-MEM media were added to provide a 1-mL mixture. In the 2-mL Lo-Bind tube, 60 μL of ExpiFectamine and 940 μL of Opti-MEM were added. After 5 minutes, the plasmid/Opti-MEM mixture was added to the ExpiFectamine/Opti-MEM mixture. The combined mixture was placed in an incubator at room temperature for 20 minutes, which was subsequently added to the flask.
After 48 hours of transfection, the transfected cells were checked for viability (90% or higher). The transfected cells were transferred to a protein Lo-Bind Eppendorf 96-well deep well plate (1000 μL), where each well contained 1 million cells in 500 μL of Expi293 media.
Solutions of candidate compounds, either individual peptides or peptides from a peptide library (DPLs), were received at a stock concentration of 10 mM and diluted in DMSO and kept in a “Source Plate”. For DPLs, the peptide concentration in the “Source Plate” was 1 mM, whereas for individual peptides, the concentration was either 100 μM (for a final concentration of 100 nM) or 10 μM (for a final concentration of 10 nM). […] of the DPL or individual peptide solution was added in triplicates to the 96-well plate. The cells were kept in a shaking incubator at 300 rpm and 37 ° C., 8% CO2 overnight for about 18-20 hours.
The following day, one of the following two methods was performed: i) capture beads method or ii) cell crash method.
Cell crash method: the 96-well plate was placed in the centrifuge at 300 g for 5 minutes. 720 μL of the supernatant was removed. The cells were resuspended in residual 200 μL of media. The suspensions were transferred to a 96-well v-bottom plate, which was placed in the centrifuge at 300 g for an additional 5 minutes. All remaining media was removed. The cell pellets were washed with 200 μL of PBS, mixed and placed back in the centrifuge at 300 g and 4 ° C. for an additional 5 minutes. The supernatant was removed and 80 μL of PBS was added.
80 μL of eluted proteins/peptides from the capture beads method or the PBD solution from the cell crash method was transferred into a deepwell low binding plate (500 μL). 80 μL of ammonium hydroxide was added. The plate was kept on a shaker at 37 ° C. for 3 hours. The plate was dried in a speedvac overnight.
The following day, the dried cell pellet was resuspended in 70 μL of 47.5% water with 0.1% FA/47.5% ACN with 0.1% FA/10 μM pepmix (10 mM stock)/5% fresh DMSO. The mixture was let sit in the plate for 1 hour to allow the dissolution of the pellet. If the sample appeared cloudy, more resuspension solution was added (50 μL at a time). 50 μL was transferred directly to the mass spec plate and the plate was sealed with the 384-well plate seal.
Once all samples were added (including cell free), the plate was placed in an autosampler of a mass spectrometer. For the mass spectrometry analysis, methods from example 1 were employed.
Results from certain assessment were presented blow. Cell crash method was utilized. Mass Shifted Peptide Theoretical Max signal is signal of an agent comprising —OH obtained when using the DhaA to convert input agent comprising —Cl into product agent comprising —OH form without involving cells (multiple agents may be converted simultaneously; in some embodiments, can be performed library by library). In some embodiments, each library pool plus positive and negative references was tested in a single well, which in some cases contain about a million or so cells. […]

[1] = Mass Shifted Peptide Signal in Cells divided by Theoretical Max Signal per replicate pair, averaged
[2] = library pool tested as mixture, MS signal of unconverted —Cl agent
[3] = library pool tested as mixture, MS signal of —OH agent
[4] = MS signal of unconverted —Cl agent from cells, library pool or individual peptide
[5] = MS signal of —OH agent from cells, library pool or individual peptide
[6] = Mass Shifted Peptide Signal in Cells divided by Mass Shifted Peptide Theoretical Max Signal, averaged across replicates

Row | SMILES | Cell Penetration Score [1] | Peptide Signal in Cells (from cells; agents comprising —Cl) [2] | Mass Shifted Peptide Signal in Cells [3] | Peptide Signal in Cells (from cells; agents comprising —Cl) [4] | Mass Shifted Peptide Signal in Cells [5] | Cell Penetration Score [6]
1 | CC(C)C[C@H](NC(=O)CCC(=O)NCCOCCOCCCCCCCl)C(=O)N[C@H](C(=O)N[C@@H](Cc1ccccc1)C(=O)N[C@]1(C)CCCCCCC=CCCC[C@@](C)(C(=O)N[C@@H](CO)C(=O)N[C@@H](C)C(=O)N[C@@H](C)C(N)=O)NC(=O)[C@H](CC2CCC2)NC(=O)[C@H](CCC(N)=O)NC(=O)[C@H](C)NC(=O)[C@H](Cc2c[nH]c3ccccc23)NC(=O)[C@H](Cc2ccc(O)cc2)NC(=O)[C@H](CCC(=O)O)NC1=O)[C@@H](C)O [PEP000117, HaloTagO2-Leu-Thr-Phe-R8-Glu-Tyr-Trp-Ala-Gln-Cba-S5-Ser-Ala-Ala-NH2] | 1141 | 1E+05 | 8E+07 | – | – | –
2 | CNC(=O)[C@H](C)NC(=O)[C@H](C)NC(=O)[C@H](CO)NC(=O)[C@]1(C)CCCC=CCCCCCC[C@@](C)(NC(=O)[C@H](Cc2ccccc2)NC(=O)[C@@H](NC(=O)[C@H](CC(C)C)NC(=O)CCC(=O)NCCOCCOCCCCCCCl)[C@@H](C)O)C(=O)N[C@@H](CCC(=O)O)C(=O)N[C@@H](Cc2ccc(O)cc2)C(=O)N[C@@H](Cc2c[nH]c3ccccc23)C(=O)N[C@@H](C)C(=O)N[C@@H](CCC(N)=O)C(=O)N[C@@H](CC2CCC2)C(=O)N1 (single isomer, unassigned) [PEP000120, HaloTagO2-Leu-Thr-Phe-R8-Glu-Tyr-Trp-Ala-Gln-Cba-S5-Ser-Ala-Ala-NHMe] | 757 | 3E+05 | 4E+07 | – | – | –
3 | CNC(=O)[C@H](C)NC(=O)[C@H](C)NC(=O)[C@H](CO)NC(=O)[C@]1(C)CCCC=CCCCCCC[C@@](C)(NC(=O)[C@H](Cc2ccccc2)NC(=O)[C@@H](NC(=O)[C@H](CC(C)C)NC(=O)CCC(=O)NCCOCCOCCCCCCCl)[C@@H](C)O)C(=O)N[C@@H](CCC(=O)O)C(=O)N[C@@H](Cc2ccc(O)cc2)C(=O)N[C@@H](Cc2c[nH]c3ccccc23)C(=O)N[C@@H](C)C(=O)N[C@@H](C)C(=O)N[C@@H](CC2CCC2)C(=O)N1 [PEP000124, HaloTagO2-Leu-Thr-Phe-R8-Glu-Tyr-Trp-Ala-Ala-Cba-S5-Ser-Ala-Ala-NHMe] | – | – | – | 3E+06 | 5E+07 | 745
4 | CC(C)C[C@H](NC(=O)CCC(=O)NCCOCCOCCCCCCCl)C(=O)N[C@H](C(=O)N[C@@H](Cc1ccccc1)C(=O)N[C@]1(C)CCCCCCC=CCCC[C@@](C)(C(=O)N[C@@H](CO)C(=O)N[C@@H](C)C(=O)N[C@@H](C)C(N)=O)NC(=O)[C@H](CC2CCC2)NC(=O)[C@H](C)NC(=O)[C@H](C)NC(=O)[C@H](Cc2c[nH]c3ccccc23)NC(=O)[C@H](Cc2ccc(O)cc2)NC(=O)[C@H](CCC(=O)O)NC1=O)[C@@H](C)O [PEP000122, HaloTagO2-Leu-Thr-Phe-R8-Glu-Tyr-Trp-Ala-Ala-Cba-S5-Ser-Ala-Ala-NH2] | 1188 | 8E+06 | 9E+07 | – | – | –
5 | CC(C)C[C@H](NC(=O)CCC(=O)NCCOCCOCCCCCCCl)C(=O)N[C@H](C(=O)N[C@@H](Cc1ccccc1)C(=O)N[C@]1(C)CCCCCCC=CCCC[C@@](C)(C(=O)N[C@@H](CO)C(=O)N[C@@H](C)C(=O)N[C@@H](C)C(N)=O)NC(=O)[C@H](CC2CCC2)NC(=O)[C@H]([C@@H](C)O)NC(=O)[C@H](C)NC(=O)[C@H](Cc2c[nH]c3ccccc23)NC(=O)[C@H](Cc2ccc(O)cc2)NC(=O)[C@H](CCC(=O)O)NC1=O)[C@@H](C)O [PEP000123, HaloTagO2-Leu-Thr-Phe-R8-Glu-Tyr-Trp-Ala-Thr-Cba-S5-Ser-Ala-Ala-NH2] | – | – | – | 1E+07 | 9E+07 | 1083
6 | CNC(=O)[C@H](C)NC(=O)[C@H](C)NC(=O)[C@H](CO)NC(=O)[C@]1(C)CCCC=CCCCCCC[C@@](C)(NC(=O)[C@H](Cc2ccccc2)NC(=O)[C@@H](NC(=O)[C@H](CC(C)C)NC(=O)CCC(=O)NCCOCCOCCCCCCCl)[C@@H](C)O)C(=O)N[C@@H](CCC(=O)O)C(=O)N[C@@H](Cc2ccc(O)cc2)C(=O)N[C@@H](Cc2c[nH]c3ccccc23)C(=O)N[C@@H](C)C(=O)N[C@@H](CCC(N)=O)C(=O)N[C@@H](CC2CCC2)C(=O)N1 (single isomer, unassigned) [PEP000125, HaloTagO2-Leu-Thr-Phe-R8-Glu-Tyr-Trp-Ala-Gln-Cba-S5-Ser-Ala-Ala-NHMe] | – | – | – | 4E+06 | 5E+07 | 888
7 | CC(C)C[C@H](NC(=O)CCC(=O)NCCOCCOCCCCCCCl)C(=O)N[C@H](C(=O)N[C@@H](Cc1ccccc1)C(=O)N[C@]1(C)CCCCCCC=CCCC[C@@](C)(C(=O)N[C@@H](CO)C(=O)N[C@@H](C)C(=O)N[C@@H](C)C(N)=O)NC(=O)[C@H](CC2CCC2)NC(=O)[C@H](CCC(N)=O)NC(=O)[C@H](C)NC(=O)[C@H](Cc2c[nH]c3ccccc23)NC(=O)[C@H](Cc2ccc(O)cc2)NC(=O)[C@H]([C@@H](C)O)NC1=O)[C@@H](C)O [PEP000118, HaloTagO2-Leu-Thr-Phe-R8-Thr-Tyr-Trp-Ala-Gln-Cba-S5-Ser-Ala-Ala-NH2] | 536 | 4E+07 | 4E+07 | – | – | –
8 | CNC(=O)[C@H](C)NC(=O)[C@H](C)NC(=O)[C@H](CO)NC(=O)[C@]1(C)CCCC=CCCCCCC[C@@](C)(NC(=O)[C@H](Cc2ccccc2)NC(=O)[C@@H](NC(=O)[C@H](CC(C)C)NC(=O)CCC(=O)NCCOCCOCCCCCCCl)[C@@H](C)O)C(=O)N[C@@H](CCC(=O)O)C(=O)N[C@@H](Cc2ccc(O)cc2)C(=O)N[C@@H](Cc2c[nH]c3ccccc23)C(=O)N[C@@H](C)C(=O)N[C@@H]([C@@H](C)O)C(=O)N[C@@H](CC2CCC2)C(=O)N1 [PEP000126, HaloTagO2-Leu-Thr-Phe-R8-Glu-Tyr-Trp-Ala-Thr-Cba-S5-Ser-Ala-Ala-NHMe] | – | – | – | 4E+06 | 4E+07 | 561
9 | CNC(=O)[C@H](C)NC(=O)[C@H](C)NC(=O)[C@H](CO)NC(=O)[C@]1(C)CCCC=CCCCCCC[C@@](C)(NC(=O)[C@H](Cc2ccccc2)NC(=O)[C@@H](NC(=O)[C@H](CC(C)C)NC(=O)CCC(=O)NCCOCCOCCCCCCCl)[C@@H](C)O)C(=O)N[C@@H]([C@@H](C)O)C(=O)N[C@@H](Cc2ccc(O)cc2)C(=O)N[C@@H](Cc2c[nH]c3ccccc23)C(=O)N[C@@H](C)C(=O)N[C@@H](CCC(N)=O)C(=O)N[C@@H](CC2CCC2)C(=O)N1 [PEP000121, HaloTagO2-Leu-Thr-Phe-R8-Thr-Tyr-Trp-Ala-Gln-Cba-S5-Ser-Ala-Ala-NHMe] | 401 | 1E+07 | 2E+07 | – | – | –
